Source: patent publication US3932668A, “Composition for treating swine scour” (priority 1971, dated 1976)
Converted amounts (≈) assume the structure as drawn. “Also recorded” adds a separate entry of the source. Where a name gives a salt, the structure may show the parent alone.

Legend:
[1] = test system: Streptococcus haemolyticus cook; experiment: Antimicrobial spectrum, minimum inhibition concentration; type: cell-based
[2] = test system: Escherichia coli 0-142; experiment: as above; type: cell-based; conditions: 0142
[3] = Absorption, residue and cross resistance as feed additive (poultry)
[4] = test system: Escherichia coli 0-135; experiment: Antimicrobial spectrum, minimum inhibition concentration; type: cell-based; conditions: 0135
[5] = Field clinical test to treat the scours of pigs; type: in vivo; parameters: key to Severity of Conditions, 4th day / Severity of Conditions, 5th day: +++: watery feces; ++: muddy feces; +: soft feces; --: normal feces
Procedure: In use, 2,3,3-triiodo-allyl-methyl ether in crystal form is formed into a fine powder, and either coated with gelatin to a content of about 10% of the ether powder or diluted 10-fold with lactose. It is used in an amount of about 10 mg or more per kilogram of the body weight of the swine in one dosage, and may be increased according to the case. Usually, it is administered twice on the first day, and thereafter, once a day for 3 to 4 days. By this method of treatment, the disease is generally cured in about 5 days.
2,3,3-triiodo-allyl-methyl ether was finely divided in a mortar, and then diluted 10-fold with lactose. A field clinical test was performed using this formulation to treat the scours of 41 pigs. The formulation was administered orally twice on the first day and once a day for the next 3 to 4 days. In this table, the symbols +++, ++, + and -- have the following meanings: […]

[6] = test system: Escherichia coli 0-20; experiment: Antimicrobial spectrum, minimum inhibition concentration; type: cell-based; conditions: 020
[7] = test system: Escherichia coli 0-78; experiment: as above; type: cell-based; conditions: 078
[8] = test system: mice; experiment: Toxicity (LD50) against mice; type: in vivo; conditions: intraperitoneal administration
Source text: (§1) As is well known, LD50, or the median lethal dose, is the dose which is fatal to 50% of the test animals, and the larger the LD50 is, the lower the toxicity of the test material is.

[9] = Toxicity (LD50) against mice; type: in vivo; conditions: mouse, in vivo
Source text: as §1

[10] = Absorption, residue and cross resistance as agent for swine scours
[11] = test system: Aspergillus fumigatus Saito; experiment: Antimicrobial spectrum, minimum inhibition concentration; type: cell-based
[12] = test system: El-tor vibrio; experiment: as above; type: cell-based
[13] = test system: Staphylococcus aureus 209-p; experiment: as above; type: cell-based
[14] = test system: Cryptococcus neoformans 301; experiment: as above; type: cell-based
[15] = test system: Tricophyton asteroides; experiment: as above; type: cell-based
[16] = Growth (increased body weights) of starting chicks raised on mixed feed for 10 weeks; type: in vivo; conditions: for Weight Increase Index: non-added group = 100.0
Source text: An amount of 2,3,3-triiodo-allyl-methyl ether as shown in Table 3 was uniformly mixed into one ton of a poultry compound feed. The 2,3,3-triiodo-allyl-methyl ether had been premixed with 100 times its weight of defatted rice bran. Using this mixed feed, 20 starting chicks were raised for 10 weeks.

[17] = test system: Candida albicans Totuka; experiment: Antimicrobial spectrum, minimum inhibition concentration; type: cell-based
[18] = test system: Escherichia coli 0-16; experiment: as above; type: cell-based; conditions: 016
[19] = test system: Escherichia coli 0-83; experiment: as above; type: cell-based; conditions: 083
[20] = test system: Salmonella typhi O-901-W; experiment: as above; type: cell-based; conditions: Salmonella enterica
[21] = test system: Escherichia coli 0-139; experiment: as above; type: cell-based; conditions: 0139
[22] = Comparative experiment: effect of kanamycin sulfate against scours of swine (control); type: in vivo; parameters: key to Severity of Conditions, 1st day / Severity of Conditions, 2nd day / Severity of Conditions, 3rd day / Severity of Conditions, 4th day / Severity of Conditions, 5th day: +++: watery feces; ++: muddy feces; +: soft feces; --: normal feces; conditions: individual swine (one table line each), single dosage 60-150 mg/Kg
Source text: Effect of Kanamycin Sulfate against Scours of […]

[23] = individual pigs (one table line each), oral, single dosage 35-200 mg/Kg, diluted 10-fold with lactose
[24] = chicks, inferred from body weight at great quantities
[25] = chicks, comparative antibiotic, 20 g

COCC(I)=C(I)I [2,3,3-triiodo-allyl-methyl ether, methyl-2,3,3-triiodoallylether]
MIC [1]: 12.5 µg/mL (≈ 27.8 µM)
MIC [2]: 6.25 µg/mL (≈ 13.9 µM)
Cross resistance ([3]; feed additive for poultry): does not have cross resistance
Absorption by the digestive tract of poultry ([3]; poultry): hardly absorbed
Residue build-up ([3]; poultry): free from residue build-up
MIC [4]: 3.12 µg/mL (≈ 6.94 µM)
Effect against the diarrhea of swine ([5]; Table 4, comparison with kanamycin sulfate): superior effect
Severity of Conditions, 4th day [5, 23]: -- and + and ++
Severity of Conditions, 5th day [5, 23]: --
Time in which the disease is generally cured ([5]; swine scours, about 10 mg or more per kg, twice first day, then once a day for 3 to 4 days): about 5 days
MIC [6]: 0.78 µg/mL (≈ 1.73 µM)
MIC [7]: 3.12 µg/mL (≈ 6.94 µM)
LD50 [8]: 50 to 100 mg/kg
LD50 ([9]; ip, intraperitoneal administration): 50 to 100 mg/kg
LD50 ([9]; oral administration): > 1000 mg/kg
selectivity ratio ([9]; times or more as great, read-out: LD50 in oral administration relative to that in intraperitoneal administration): 10 to 20
Cross resistance ([10]; agent for swine scours): does not have cross resistance
Absorption by the digestive tract of swine ([10]; swine): hardly absorbed
Build-up of residue ([10]; swine): does not cause a build-up of residue
MIC [11]: 3.12 µg/mL (≈ 6.94 µM)
MIC [12]: 3.12 µg/mL (≈ 6.94 µM)
MIC [13]: 6.25 µg/mL (≈ 13.9 µM)
MIC [14]: 0.78 µg/mL (≈ 1.73 µM)
MIC [15]: 1.56 µg/mL (≈ 3.47 µM)
Body weight after 10 weeks compared with the group not given the additive ([16]; all groups fed the additive): showed an increase in body weight after 10 weeks
Body weight, 2nd week ([16]; chicks, 1 g/ton of feed): 120.4
Body weight, 4th week ([16]; chicks, 1 g/ton of feed): 357.4
Body weight, 6th week ([16]; chicks, 1 g/ton of feed): 682.4
Body weight, 8th week ([16]; chicks, 1 g/ton of feed): 1084.4
Body weight, 10th week ([16]; chicks, 1 g/ton of feed): 1329.7
Weight Increase Index ([16]; chicks, 1 g/ton of feed): 109.9
Body weight, 2nd week ([16]; chicks, 5 g/ton of feed): 125.9
Body weight, 4th week ([16]; chicks, 5 g/ton of feed): 362.1
Body weight, 6th week ([16]; chicks, 5 g/ton of feed): 706.2
Body weight, 8th week ([16]; chicks, 5 g/ton of feed): 1099.3
Body weight, 10th week ([16]; chicks, 5 g/ton of feed): 1408.4
Weight Increase Index ([16]; chicks, 5 g/ton of feed): 116.4
Body weight, 2nd week ([16]; chicks, 10 g/ton of feed): 147.6
Body weight, 4th week ([16]; chicks, 10 g/ton of feed): 388.0
Body weight, 6th week ([16]; chicks, 10 g/ton of feed): 764.0
Body weight, 8th week ([16]; chicks, 10 g/ton of feed): 1150.7
Body weight, 10th week ([16]; chicks, 10 g/ton of feed): 1512.1
Weight Increase Index ([16]; chicks, 10 g/ton of feed): 125.0
Body weight, 2nd week ([16]; chicks, 20 g/ton of feed): 120.4
Body weight, 4th week ([16]; chicks, 20 g/ton of feed): 350.2
Body weight, 6th week ([16]; chicks, 20 g/ton of feed): 647.3
Body weight, 8th week ([16]; chicks, 20 g/ton of feed): 990.7
Body weight, 10th week ([16]; chicks, 20 g/ton of feed): 1303.1
Weight Increase Index ([16]; chicks, 20 g/ton of feed): 109.7
Body weight, 2nd week ([16]; chicks, 50 g/ton of feed): 124.3
Body weight, 4th week ([16]; chicks, 50 g/ton of feed): 359.4
Body weight, 6th week ([16]; chicks, 50 g/ton of feed): 671.3
Body weight, 8th week ([16]; chicks, 50 g/ton of feed): 1030.5
Body weight, 10th week ([16]; chicks, 50 g/ton of feed): 1382.2
Weight Increase Index ([16]; chicks, 50 g/ton of feed): 114.3
Body weight, 2nd week ([16]; chicks, 100 g/ton of feed): 128.2
Body weight, 4th week ([16]; chicks, 100 g/ton of feed): 349.8
Body weight, 6th week ([16]; chicks, 100 g/ton of feed): 663.1
Body weight, 8th week ([16]; chicks, 100 g/ton of feed): 946.7
Body weight, 10th week ([16]; chicks, 100 g/ton of feed): 1223.7
Weight Increase Index ([16]; chicks, 100 g/ton of feed): 101.2
Body weight, 2nd week ([16]; chicks, 200 g/ton of feed): 106.5
Body weight, 4th week ([16]; chicks, 200 g/ton of feed): 343.2
Body weight, 6th week ([16]; chicks, 200 g/ton of feed): 686.3
Body weight, 8th week ([16]; chicks, 200 g/ton of feed): 1039.6
Body weight, 10th week ([16]; chicks, 200 g/ton of feed): 1298.3
Weight Increase Index ([16]; chicks, 200 g/ton of feed): 107.3
Effect of great quantities on body weight ([16]; chicks, addition of great quantities): did not cause a decrease in body weight
Absorption by the digestive tract [16, 24]: little absorbed
Side-effects [16, 24]: does not have side-effects
MIC [17]: 3.12 µg/mL (≈ 6.94 µM)
MIC [18]: 6.25 µg/mL (≈ 13.9 µM)
MIC [19]: 12.5 µg/mL (≈ 27.8 µM)
MIC [20]: 3.12 µg/mL (≈ 6.94 µM)
MIC [21]: 12.5 µg/mL (≈ 27.8 µM)

CC1(C)S[C@@H]2[C@H](NC(=O)Cc3ccccc3)C(=O)N2[C@H]1C(=O)O [Procaine Pencillin G]
Body weight, 2nd week [16, 25]: 127.3
Body weight, 4th week [16, 25]: 374.6
Body weight, 6th week [16, 25]: 664.2
Body weight, 8th week [16, 25]: 1012.9
Body weight, 10th week [16, 25]: 1324.0
Weight Increase Index [16, 25]: 109.5

NC[C@H]1O[C@H](O[C@H]2[C@H](O)[C@@H](O[C@H]3O[C@H](CO)[C@@H](O)[C@H](N)[C@H]3O)[C@H](N)C[C@@H]2N)[C@H](O)[C@@H](O)[C@@H]1O [Kanamycin Sulfate]
Evaluation [22]: Cured; also recorded: Deaths
Severity of Conditions, 1st day [22]: ++ and + and +++
Severity of Conditions, 2nd day [22]: ++ and + and -- and +++
Severity of Conditions, 3rd day [22]: + and ++ and --
Severity of Conditions, 4th day [22]: -- and + and ++
Severity of Conditions, 5th day [22]: -- and + and ++
